The assay has as its system Sprague Dawley rats. The experiment in a line: Survival in acute renal failure model (unilateral renal ischemia-reperfusion with contralateral nephrectomy). Type of assay: in vivo, rat. As to conditions: up to 7 days after reperfusion, control group 29%. The procedure: The protocol is similar to the one described by Narayan P et al, Am J Physiol Renal Physiol, 311(2):F352-61, 2016 and was approved by an ethics committee. In summary, general anesthesia is induced in male Sprague Dawley rats (250-300 g) using sodium pentobarbital (60 mg/kg, ip) instead of ketamine/xylazine in the protocol described by Narayan P et al, Am J Physiol Renal Physiol, 311 (2): F352-61, 2016. A skin incision is made on the dorsal surface and the left kidney is exposed by incisions on the flank. The left renal pedicle is then isolated and clamped for 60 minutes using atraumatic vascular clamps. The kidneys are replaced in the abdominal cavity to maintain temperature and the incision is covered with gauze soaked in 0.9% saline. After the ischemia time (60 minutes), the clamps are released to begin reperfusion. Reperfusion is monitored (kidney color change) for 1 to 2 minutes and physiological saline (1 mL) is administered to prevent dehydration. Next, a right kidney nephrectomy is performed and the incisions are closed with sutures. The animals are kept at approximately 37° C. using a thermoregulated system during the operation. Buprenorphine (0.2 mg/kg sc) is administered before the animals are returned to their cages and once a day until 4 days after reperfusion. […]
The compounds Micafungin (0.25 mg/kg), Anidulafungin (0.35 mg/kg) or the combination of the compounds Micafungin (0.25 mg/kg) and Allopurinol (3 mg/kg) are administered solubilized in physiological saline as a single intravenous injection into the tail vein 60 (±15) minutes before the onset of ischemia. The volume of administration of the compounds is determined on the basis of the body weight (2 mL/kg) of each animal. […]
For each experiment the curve of the number of surviving animals versus the number of days post-ischemia-reperfusion (Kaplan-Meier curve) is shown. The x-axis is graduated from the first day =0 to the seventh day =6 The y-axis is graduated from 0% to 100% of the initial population of the analyzed group. […]

Starred links: 1 amine or outer side, 2 acyl side, 3 side chain; linkers in the order of their positions; H or OH if unused. Positions of bridges follow the written chain, without caps; N, C: chain ends. Non-standard residues stand in square brackets, D forms with d. Residues, ends and D or L forms follow the SMILES beside them. ξ: configuration not given here. *: point of attachment. hTyr(3S-OH,4S-OH,3'-OSO3H) = N[C@H](C(=O)O)[C@H](O)[C@@H](O)c1ccc(O)c(OS(=O)(=O)O)c1; pTerphenylCO(4''-OnC5H11) = CCCCCOc1ccc(-c2ccc(-c3ccc(C(=O)*)cc3)cc2)cc1; Orn(4R-OH,5R-OH) = O=C([C@H](C[C@@H](O)[C@@H](O)N[*:3])N[*:1])[*:2]; hTyr(3S-OH,4S-OH) = N[C@H](C(=O)O)[C@H](O)[C@@H](O)c1ccc(O)cc1; Pro(3S-OH,4S-Me) = C[C@H]1CN[C@H](C(=O)O)[C@H]1O; X1 = CCCCCOc1ccc(-c2cc(-c3ccc(C(=O)*)cc3)no2)cc1; Gln(3R-OH) = NC(=O)C[C@@H](O)[C@H](N)C(=O)O; ξPro(4R-OH) = O=C(O)C1C[C@@H](O)CN1; Hyp = O=C(O)[C@@H]1C[C@@H](O)CN1

For the compound `CCCCCOc1ccc(-c2ccc(-c3ccc(C(=O)N[C@H]4C[C@@H](O)[C@@H](O)NC(=O)[C@@H]5[C@@H](O)[C@@H](C)CN5C(=O)[C@H]([C@@H](C)O)NC(=O)[C@H]([C@H](O)[C@@H](O)c5ccc(O)cc5)NC(=O)C5C[C@@H](O)CN5C(=O)[C@H]([C@@H](C)O)NC4=O)cc3)cc2)cc1` (stereo partly drawn) [Anidulafungin] ({pTerphenylCO(4''-OnC5H11)}-[Orn(4R-OH,5R-OH)]T[ξPro(4R-OH)][hTyr(3S-OH,4S-OH)]T[Pro(3S-OH,4S-Me)]; lactam 1-C), the “Surviving animals at end of Kaplan-Meier curve (% of initial population of the group)” value (Anidulafungin 0.35 mg/kg single iv injection 60 min before ischemia) is given as 75%.
As for `CCCCCOc1ccc(-c2cc(-c3ccc(C(=O)N[C@H]4C[C@@H](O)[C@@H](O)NC(=O)[C@@H]5[C@@H](O)[C@@H](C)CN5C(=O)[C@H]([C@H](O)CC(N)=O)NC(=O)[C@H]([C@H](O)[C@@H](O)c5ccc(O)c(OS(=O)(=O)O)c5)NC(=O)[C@@H]5C[C@@H](O)CN5C(=O)[C@H]([C@@H](C)O)NC4=O)cc3)no2)cc1` [Micafungin, {5-[(1S,2S)-2-[(3S,6S,9S,11R,15S,18S,20R,21R,24S,25S,26S)-3-[(1R)-2-carbamoyl-1-hydroxyethyl]-11,20,21,25-tetrahydroxy-15-[(1R)-1-hydroxyethyl]-26-methyl-2,5,8,14,17,23-hexaoxo-18-[(4-{5-[4-(pentyloxy)phenyl]-1,2-oxazol-3-yl}benzene)amido]-1,4,7,13,16,22-hexaazatricyclo[22.3.0.0]heptacosan-6-yl]-1,2-dihydroxyethyl]-2-hydroxyphenyl}oxidanesulfonic acid] (X1-[Orn(4R-OH,5R-OH)]T[Hyp][hTyr(3S-OH,4S-OH,3'-OSO3H)][Gln(3R-OH)][Pro(3S-OH,4S-Me)]; lactam 1-C), under “Micafungin 0.25 mg/kg single iv injection 60 min before ischemia”, the “Surviving animals at end of Kaplan-Meier curve (% of initial population of the group)” value is 67%.

The values above are taken from US11458189B2, “Cytoprotective drugs” (BALMES TRANSPLANTATION, priority 2017, dated 2022).
